Reference: PubChem BioAssay AID248 (DTP/NCI, 2004)
Where “and” joins values, the source holds several entries; their conditions need not be identical. Identical values can stand only once. Inconclusive results and toxic doses are left out.

Test system: L1210 leukemia ip in BDF1 mice, survival T/C
Assay: NCI In Vivo Anticancer Drug Screen. Data for tumor model L1210 Leukemia (intraperitoneal) in B6D2F1 (BDF1) mice
Conditions: endpoint: mean survival time, higher = longer survival
In short: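 In this screen, tumor-bearing mice given compound are compared to those given vehicle, and their survival values are reported as a treated-to-control quotient.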

[1] = dose: 100.0 mg/kg/injection, schedule: Q01DX009 (ip), vehicle: Klucel (hydroxypropylcellulose) (HPC)
[2] = dose: 200.0 mg/kg/injection, schedule: Q01DX009 (ip), vehicle: Klucel (hydroxypropylcellulose) (HPC)
[3] = dose: 100.0 mg/kg/injection, schedule: Q01DX001 (ip), vehicle: saline
[4] = dose: 200.0 mg/kg/injection, schedule: Q01DX001 (ip), vehicle: saline

SMILES: O=c1cc(CO)[nH]cc1O
- T/C (dose: 25.0 mg/kg/injection, schedule: Q01DX Z (ip), vehicle: methylcellulose (MC)): 102 % of control
- T/C (dose: 50.0 mg/kg/injection, schedule: Q01DX015 (ip), vehicle: carboxymethylcellulose (CMC)): 103 % of control
- T/C (dose: 50.0 mg/kg/injection, schedule: Q01DX Z (ip), vehicle: methylcellulose (MC)): 96 % of control
- T/C (dose: 62.5 mg/kg/injection, schedule: Q01DX015 (ip), vehicle: saline): 115 % of control
- T/C (dose: 78.0 mg/kg/injection, schedule: Q01DX Z (ip), vehicle: carboxymethylcellulose (CMC)): 98 % of control and 112 % of control
- T/C (dose: 78.0 mg/kg/injection, schedule: Q01DX Z (ip), vehicle: saline): 96 % of control and 114 % of control
- T/C (dose: 100.0 mg/kg/injection, schedule: Q01DX001 (ip), vehicle: Klucel (hydroxypropylcellulose) (HPC)): 106 % of control
- T/C [1]: 110 % of control and 121 % of control
- T/C (dose: 100.0 mg/kg/injection, schedule: Q01DX009 (ip), vehicle: saline): 121 % of control
- T/C (dose: 100.0 mg/kg/injection, schedule: Q01DX015 (ip), vehicle: carboxymethylcellulose (CMC)): 108 % of control
- T/C (dose: 100.0 mg/kg/injection, schedule: Q01DX Z (ip), vehicle: methylcellulose (MC)): 101 % of control
- T/C (dose: 100.0 mg/kg/injection, schedule: Q04DX003 (ip), vehicle: Klucel (hydroxypropylcellulose) (HPC)): 110 % of control
- T/C (dose: 100.0 mg/kg/injection, schedule: Q04DX003 (ip), vehicle: saline): 106 % of control
- T/C (dose: 117.0 mg/kg/injection, schedule: Q01DX Z (ip), vehicle: carboxymethylcellulose (CMC)): 104 % of control and 121 % of control
- T/C (dose: 117.0 mg/kg/injection, schedule: Q01DX Z (ip), vehicle: methylcellulose (MC)): 110 % of control
- T/C (dose: 117.0 mg/kg/injection, schedule: Q01DX Z (ip), vehicle: saline): 110 % of control and 120 % of control
- T/C (dose: 125.0 mg/kg/injection, schedule: Q01DX001 (ip), vehicle: carboxymethylcellulose (CMC)): 104 % of control and 106 % of control
- T/C (dose: 125.0 mg/kg/injection, schedule: Q01DX015 (ip), vehicle: saline): 113 % of control
- T/C (dose: 125.0 mg/kg/injection, schedule: Q## X001 (ip), vehicle: carboxymethylcellulose (CMC)): 100 % of control
- T/C (dose: 175.0 mg/kg/injection, schedule: Q01DX Z (ip), vehicle: carboxymethylcellulose (CMC)): 109 % of control
- T/C (dose: 175.0 mg/kg/injection, schedule: Q01DX Z (ip), vehicle: methylcellulose (MC)): 96 % of control
- T/C (dose: 175.0 mg/kg/injection, schedule: Q01DX Z (ip), vehicle: saline): 113 % of control
- T/C (dose: 177.0 mg/kg/injection, schedule: Q01DX009 (ip), vehicle: Klucel (hydroxypropylcellulose) (HPC)): 121 % of control
- T/C (dose: 200.0 mg/kg/injection, schedule: Q01DX001 (ip), vehicle: Klucel (hydroxypropylcellulose) (HPC)): 110 % of control
- T/C [2]: 151 % of control
- T/C (dose: 200.0 mg/kg/injection, schedule: Q04DX003 (ip), vehicle: Klucel (hydroxypropylcellulose) (HPC)): 122 % of control
- T/C (dose: 200.0 mg/kg/injection, schedule: Q04DX003 (ip), vehicle: saline): 115 % of control
- T/C (dose: 250.0 mg/kg/injection, schedule: Q01DX001 (ip), vehicle: carboxymethylcellulose (CMC)): 97 % of control and 101 % of control
- T/C (dose: 250.0 mg/kg/injection, schedule: Q01DX015 (ip), vehicle: saline): 159 % of control
- T/C (dose: 250.0 mg/kg/injection, schedule: Q## X001 (ip), vehicle: carboxymethylcellulose (CMC)): 106 % of control
- T/C (dose: 263.0 mg/kg/injection, schedule: Q01DX Z (ip), vehicle: carboxymethylcellulose (CMC)): 124 % of control
- T/C (dose: 263.0 mg/kg/injection, schedule: Q01DX Z (ip), vehicle: methylcellulose (MC)): 110 % of control
- T/C (dose: 264.0 mg/kg/injection, schedule: Q01DX008 (ip), vehicle: saline): 106 % of control
- T/C (dose: 264.0 mg/kg/injection, schedule: Q01DX009 (ip), vehicle: saline): 101 % of control
- T/C (dose: 393.0 mg/kg/injection, schedule: Q01DX Z (ip), vehicle: methylcellulose (MC)): 116 % of control
- T/C (dose: 400.0 mg/kg/injection, schedule: Q01DX001 (ip), vehicle: Klucel (hydroxypropylcellulose) (HPC)): 112 % of control
- T/C (dose: 400.0 mg/kg/injection, schedule: Q01DX008 (ip), vehicle: saline): 116 % of control
- T/C (dose: 400.0 mg/kg/injection, schedule: Q01DX009 (ip), vehicle: Klucel (hydroxypropylcellulose) (HPC)): 156 % of control
- T/C (dose: 400.0 mg/kg/injection, schedule: Q04DX003 (ip), vehicle: Klucel (hydroxypropylcellulose) (HPC)): 122 % of control
- T/C (dose: 400.0 mg/kg/injection, schedule: Q04DX003 (ip), vehicle: saline): 112 % of control
- T/C (dose: 500.0 mg/kg/injection, schedule: Q01DX001 (ip), vehicle: carboxymethylcellulose (CMC)): 95 % of control and 111 % of control
- T/C (dose: 500.0 mg/kg/injection, schedule: Q01DX015 (ip), vehicle: saline): 165 % of control
- T/C (dose: 500.0 mg/kg/injection, schedule: Q01DX Z (ip), vehicle: methylcellulose (MC)): 106 % of control
- T/C (dose: 500.0 mg/kg/injection, schedule: Q## X001 (ip), vehicle: carboxymethylcellulose (CMC)): 101 % of control
- T/C (dose: 590.0 mg/kg/injection, schedule: Q01DX Z (ip), vehicle: carboxymethylcellulose (CMC)): 105 % of control
- T/C (dose: 625.0 mg/kg/injection, schedule: Q01DX Z (ip), vehicle: methylcellulose (MC)): 108 % of control
- T/C (dose: 750.0 mg/kg/injection, schedule: Q01DX Z (ip), vehicle: methylcellulose (MC)): 120 % of control
- T/C (dose: 1000.0 mg/kg/injection, schedule: Q01DX001 (ip), vehicle: carboxymethylcellulose (CMC)): 102 % of control and 105 % of control
- T/C (dose: 1000.0 mg/kg/injection, schedule: Q## X001 (ip), vehicle: carboxymethylcellulose (CMC)): 108 % of control

SMILES: O=C(O)/C=C\c1cn(C2OC(CO)C(O)C(O)C2O)c2ccccc12 (stereo not given)
- T/C (dose: 60.0 mg/kg/injection, schedule: Q01DX001 (ip), vehicle: sodium bicarbonate): 105 % of control
- T/C (dose: 120.0 mg/kg/injection, schedule: Q01DX001 (ip), vehicle: sodium bicarbonate): 97 % of control

SMILES: CCC(=O)CC(C)(C)C
- T/C [3]: 92 % of control
- T/C [4]: 97 % of control
- T/C (dose: 400.0 mg/kg/injection, schedule: Q01DX001 (ip), vehicle: saline): 100 % of control

SMILES: O=C(COc1ccc(Cl)cc1)Nc1ccc(I)cc1
- T/C (dose: 100.0 mg/kg/injection, schedule: Q04DX002 (ip), vehicle: Klucel (hydroxypropylcellulose) (HPC)): 92 % of control
- T/C (dose: 200.0 mg/kg/injection, schedule: Q04DX002 (ip), vehicle: Klucel (hydroxypropylcellulose) (HPC)): 100 % of control
- T/C (dose: 400.0 mg/kg/injection, schedule: Q04DX002 (ip), vehicle: Klucel (hydroxypropylcellulose) (HPC)): 96 % of control

SMILES: C=CC(=O)Nc1cccc(OC(=O)NC)c1
- T/C (dose: 100.0 mg/kg/injection, schedule: Q01DX001 (ip), vehicle: saline with Tween-80): 99 % of control
- T/C (dose: 200.0 mg/kg/injection, schedule: Q01DX001 (ip), vehicle: saline with Tween-80): 100 % of control
- T/C (dose: 400.0 mg/kg/injection, schedule: Q01DX001 (ip), vehicle: saline with Tween-80): 92 % of control

SMILES: O=C1CCn2c1c(O)c1ccccc1c2=O
- T/C [3]: 97 % of control
- T/C [4]: 97 % of control

SMILES: Clc1ccc2c(c1)-c1ccccc1C1=NCCN12
- T/C (dose: 5.0 mg/kg/injection, schedule: Q01DX009 (ip), vehicle: Klucel (hydroxypropylcellulose) (HPC)): 95 % of control
- T/C (dose: 10.0 mg/kg/injection, schedule: Q01DX009 (ip), vehicle: Klucel (hydroxypropylcellulose) (HPC)): 101 % of control
- T/C (dose: 10.0 mg/kg/injection, schedule: Q04DX003 (ip), vehicle: Klucel (hydroxypropylcellulose) (HPC)): 101 % of control
- T/C (dose: 20.0 mg/kg/injection, schedule: Q04DX003 (ip), vehicle: Klucel (hydroxypropylcellulose) (HPC)): 110 % of control

SMILES: O=C(O)/C=C/C(=O)Nc1ccc(NC(=O)/C=C/C(=O)O)cc1
- T/C (dose: 100.0 mg/kg/injection, schedule: Q04DX003 (ip), vehicle: saline with Tween-80): 98 % of control
- T/C (dose: 200.0 mg/kg/injection, schedule: Q04DX003 (ip), vehicle: saline with Tween-80): 95 % of control
- T/C (dose: 400.0 mg/kg/injection, schedule: Q04DX003 (ip), vehicle: saline with Tween-80): 96 % of control

SMILES: Cc1ccc(Cl)cc1NC(=O)Oc1cc(C)c(Cl)c(C)c1
- T/C [1]: 94 % of control
- T/C [2]: 96 % of control

SMILES: CN1C2CCC1CC(OC(c1ccccc1)c1ccccc1)C2 (stereo not given)
- T/C (dose: 3.12 mg/kg/injection, schedule: Q01DX009 (ip), vehicle: saline): 95 % of control
- T/C (dose: 5.0 mg/kg/injection, schedule: Q01DX009 (ip), vehicle: saline): 92 % of control
- T/C (dose: 6.25 mg/kg/injection, schedule: Q01DX009 (ip), vehicle: saline): 97 % of control
- T/C (dose: 10.0 mg/kg/injection, schedule: Q01DX009 (ip), vehicle: saline): 103 % of control
- T/C (dose: 12.5 mg/kg/injection, schedule: Q01DX009 (ip), vehicle: saline): 103 % of control
- T/C (dose: 17.0 mg/kg/injection, schedule: Q01DX009 (ip), vehicle: saline): 95 % of control
- T/C (dose: 20.0 mg/kg/injection, schedule: Q01DX009 (ip), vehicle: saline): 90 % of control
- T/C (dose: 25.0 mg/kg/injection, schedule: Q01DX009 (ip), vehicle: saline): 109 % of control
- T/C (dose: 55.0 mg/kg/injection, schedule: Q01DX001 (ip), vehicle: saline): 98 % of control
